Results: PMC9304066, “H2S biogenesis by cystathionine beta-synthase: mechanism of inhibition by aminooxyacetic acid and unexpected role of serine” (Cellular and Molecular Life Sciences: CMLS, 2022)
pIC50, pKd: −log10 of the molar value. Values joined by “and” are separate entries in the source; they are usually repeats but may differ in a detail not shown here. Identical values can stand only once.

Legend:
tScCBS [1] = biological target: T1, tScCBS (Saccharomyces cerevisiae, UniProt P32582); test: CBS H2S production assay (AzMC fluorometric), tScCBS; assay type: biochemical
T1 construct: 6xHis (C); made in house
T1 sequence (P32582 1-345): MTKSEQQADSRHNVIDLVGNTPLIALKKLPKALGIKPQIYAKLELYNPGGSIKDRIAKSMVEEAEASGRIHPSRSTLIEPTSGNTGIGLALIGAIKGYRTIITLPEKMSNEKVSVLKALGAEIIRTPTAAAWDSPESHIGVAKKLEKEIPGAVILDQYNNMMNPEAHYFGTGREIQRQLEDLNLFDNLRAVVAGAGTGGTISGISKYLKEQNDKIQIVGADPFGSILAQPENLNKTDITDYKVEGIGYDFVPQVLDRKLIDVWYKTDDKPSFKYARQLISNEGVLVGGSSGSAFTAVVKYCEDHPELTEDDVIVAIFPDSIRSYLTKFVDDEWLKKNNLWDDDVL
Description: CBS H2S production assay. H2S-producing activity of CBS, utilizing Cys and Hcy, was determined using a fluorometric assay employing the H2S-selective fluorescent probe 7-azido-4-methylcoumarin (AzMC) as described previously. The reaction mixture in a total volume of 200 µL contained 50 mM Tris–HCl pH 8.6, 5 μM PLP, 2 mM Hcy, 10 μM AzMC and 500 ng tScCBS or HsCBS. The plate was incubated for 10 min at 37°C and the enzymatic activity was triggered by adding 0–50 mM Cys. The fluorescence of the mixtures at 450 nm (excited at 365 nm) was followed for 2 h at 37°C. All measurements were performed in triplicates using Tecan Infinite 200 PRO microplate reader. Kinetic data were analyzed using GraphPad Prism software.

tScCBS [2] = biological target: T1, tScCBS; test: UV-Vis absorption titration of tScCBS (dissociation constants); assay type: binding; details: tScCBS 1 mg/mL, pH 8.5; decrease in absorbance at 412 nm (AOAA), increase at 460 nm (Ser) or 440 nm (Cys); 3 min incubation; read-out: Dissociation constant Kd (UV-Vis absorption)
Description: CBS enzymes. Recombinant truncated Saccharomyces cerevisiae CBS lacking the C-terminal regulatory domain (residues 346–507) and carrying the C-terminal 6xHis tag (tScCBS) was prepared as described previously. Engineered recombinant Homo sapiens CBS lacking a loop protruding from the central β-strand of the CBS2 domain corresponding to the residues 516–525 (HsCBS; described in detail in [21]) was purchased from GenScript.
(§1) UV − Vis and fluorescence spectroscopy. Absorption spectra were collected on a Tecan Infinite M200 Pro spectrophotometer in a buffer containing 50 mM Tris–HCl pH 8.5, 20 mM NaCl and 0.5 mM tris(2-carboxyethyl)phosphine (TCEP). All the spectra were carried out with a protein concentration of 1 mg/mL with a 1 cm path-length quartz cuvette in a total volume of 150 µL. tScCBS was titrated directly in a cuvette by successive additions of different concentrations of AOAA, Ser and Cys, respectively, and spectra were recorded between 240 and 600 nm after an incubation time of 3 min at RT. Fluorescence emission spectra were collected under the same conditions upon PLP excitation at 410 nm. Blank spectra were subtracted from sample spectra.

tScCBS [3] = biological target: T1, tScCBS; test: Kinetics of AOAA binding to tScCBS and displacement by substrate, followed by absorption spectra
Description: as §1
Fig. 2 Spectroscopic rescue of AOAA-inhibited tScCBS by Ser. A Changes in the absorption spectra of tScCBS upon addition of 20 µM AOAA (cyan lines) followed for 1 h. Subsequently, 1 mM Ser (gray lines) was added and spectral changes were followed for additional 1 h. B Representative kinetic fitting of AOAA binding to tScCBS followed at 412 nm. C Representative kinetic fitting of AOAA displacement from tScCBS by Ser by following changes at 370 nm and 460 nm. The kinetic parameters of the observed processes are shown as insets in panels B and C. Far-UV (D) and near-UV (E) CD spectra of tScCBS (black), tScCBS complexed with 20 µM AOAA (cyan) or 1 mM Ser (magenta) and tScCBS complexed with 20 µM AOAA followed by 1 h incubation with 1 mM Ser (green).

HEK293 cells = test: Bioenergetic analysis (Seahorse XFe24 flux analyzer); assay type: cell-based, human
Description: Bioenergetic analysis. The Seahorse XFe24 flux analyzer (Agilent Technologies, Santa Clara, CA, USA) was used to estimate mitochondrial respiration of HEK293 cells. Cells were seeded in Seahorse XFe24 Cell Culture Microplates at density of 15,000 cells/well in a total volume of 200 µl, incubated for 2 h, followed by treatment for 24 h as described above for H2S live imaging. Next day, culture medium was replaced for Seahorse XF DMEM supplemented with 2 mM glutamine, 1 mM pyruvate and 10 mM glucose. The microplate was then incubated in a CO2-free incubator at 37°C for 1 h, to allow temperature and pH equilibration, as recommended by the manufacturer. The assay protocol included two measurements of basal values of oxygen consumption rate (OCR), followed by the injection of 1 µM oligomycin, used to evaluate ATP generation rate. Subsequently, the mitochondrial oxidative phosphorylation uncoupler FCCP (0.2 µM) was added to estimate maximal mitochondrial respiratory capacity. Lastly, 0.5 µM of rotenone and antimycin A (each) were injected to inhibit the electron flux through the complex I and III, respectively, aiming to detect the extra-mitochondrial OCR. Data were analyzed with Wave package (version 2.6; Agilent Technologies, Santa Clara, CA, USA) and GraphPad Prism 8 (GraphPad Software Inc.; San Diego, CA, USA).

## N[C@@H](CO)C(=O)O [Ser, serine]
tScCBS [1]; tScCBS, 1 mM Ser after 200 µM AOAA incubation, then desalting
  Recovery of activity of AOAA-inhibited enzyme: substantial recovery
tScCBS [2]
  pKd: ~4.24 and 4.23
tScCBS [3]; 1 mM Ser added after 1 h with 20 µM AOAA, changes at 370 nm and 460 nm
  Rate constant k of AOAA displacement from tScCBS by Ser: 0.07 ± 0.01 min⁻¹
tScCBS [3]; 1 mM Ser after 20 µM AOAA
  Slower formation of PLP-aminoacrylate intermediate compared with PLP-AOAA oxime formation: approximately 3 ×
HEK293 cells; HEK293, 1, 3 and 10 mM Ser alone, 24 h
  Impact on mitochondrial function: did not have any significant impact
HEK293 cells; HEK293 inhibited by 150 µM AOAA, supplemented with 1, 3 or 10 mM Ser
  Cellular bioenergetics compared to untreated controls: correction or normalization

## NOCC(=O)O [AOAA, aminooxyacetic acid]
tScCBS [1]; 200 µM AOAA, then excess removed by desalting column, range printed for tScCBS and HsCBS together
  Inhibition of CBS activity: 75–92%
tScCBS [1]; tScCBS, AzMC assay, 5 mM Cys + 2 mM Hcy
  pIC50: 5.04
tScCBS [2]
  pKd: ~5.22
tScCBS [3]; 20 µM AOAA added to tScCBS, followed at 412 nm
  Rate constant k of PLP-AOAA oxime intermediate formation: 0.22 min⁻¹ and 0.22 ± 0.05 min⁻¹
HEK293 cells; HEK293, 150 µM AOAA, 24 h
  Bioenergetics parameters (basal respiration, maximal respiration, ATP production): significant decrease
